From patent publication US12178917B2, “Beta-lactamase formulations and uses thereof” (Theriva Biologics, Inc., priority 2014, dated 2024)

Legend:
intestinal microbiome [1] = assay: Whole genome shotgun sequencing and comparative metagenomics of pig fecal samples; assay type: in vivo, gnotobiotic pigs populated with human adult fecal microflora; conditions: for number of bacterial taxa, Genus / number of bacterial taxa, Species / number of bacterial taxa, Strain/sub-species: per treatment group, pig fecal samples
Procedure: In order to study the ability of P3A to protect the intestinal microbiome from antibiotics-induced (e.g., ceftriaxone (CRO)-induced) damage, pig fecal samples obtained from the study described above were subjected to additional genomic analysis. Specifically, the 16S rRNA gene V1V2 region was sequenced. In addition, fecal DNA was subjected to whole genome shotgun sequencing. Shotgun sequencing was performed using Illumina HiSeq RAPID RUN, targeting 100 bp single read with the aim to achieve approximately 10-20 million reads per sample (Table 6),
These sequence data were classified taxonomically to identify microbial communities associated with the pig fecal samples. Taxonomic classification was performed using bioInformatics algorithms and curated genome databases. Briefly, raw, unassembled shotgun sequence reads were probed against curated GeneBook bacterial and viral databases using GENIUS software package for rapid identification of bacteria communities as well as their relative abundance (Hasan of al., 2014, PLoS ONE 9:e97699; Lax et al., 2014, Science 345:1048). The analyses identified 139 bacterial strains, 79 species, and 35 genera among the treatment groups (Table 7).
Comparative metagenomics analyses were performed by creating heatmaps based on the relative abundance of each bacterial strain in each sample (see FIGS. 11A and 11B) and at the bacterial genus level (see FIG. 12) using the NMF R software package (Gaujoux and Seoighe, 2010, BMC Bioinformatics, 11:367). The samples were clustered using the maximum distance function and the Ward Hierarchical Clustering algorithm. The distance function was used to measure the difference in composition between each of the samples. The clustering algorithm used the distances between each of the samples to create a dendrogram that clustered samples with similar compositions, including both the presence and absence of organisms, in the same clades.
Comparative metagenomics analyses were also performed to investigate changes in the microbiome across different treatment groups. For these analyses, the centroid classification method from the PamR package (Tibshirani of al., 2002, PNAS 99:6567), was used to compare the average frequency (absolute abundance) of each bacterial strain in the samples. The deviation of the centroid of each bacterial strain from each study group was graphed by the overall centroid of all the study groups (FIGS. 13A and 13B).
As the number of sequence reads generated from each individual sample was variable, subsamples from each sample were chosen to represent a subset of 10 million reads. This was done to avoid any bias due to different sample sizes and to enable the measurement of the absolute abundance of the bacterial organisms in the samples. Using these subsets to reduce bias, the comparative metagenomics analyses were performed as described previously for FIGS. 13A and 13B by graphing the deviation of the centroid of each bacterial strain from each study group by the overall centroid of all the study groups (FIGS. 14A and 14B).

intestinal microbiome [2] = assay: P3A-mediated microbiome protection in humanized pigs, 16S rRNA sequencing of fecal DNA; assay type: in vivo, gnotobiotic pigs populated with human adult fecal microflora; conditions: feces collected on Day 14; antibiotics IP 50 mg/kg 4 days; P3A 75 mg/dose orally 4 times a day 7 days
in vivo = assay: in vivo; set-up: species or system Yorkshire piglets; conditions: Yorkshire, pig; for CRO serum levels: iv, 50 mg/kg
Procedure: A total of 10 pigs were treated once a day with IV ceftriaxone (CRO; 50 mg/kg) for a total of 7 days. A cohort of 5 pigs also received oral P3A (75 mg, four times a day), starting the day before CRO treatment and extending one day after CRO was stopped, for a total of 9 days. On Day 2 of CRO treatment, serum was collected 1, 6, and 19 hours after CRO administration. Serum was assayed for CRO levels using a validated high-performance liquid chromatography assay. […] The CRO levels in the serum collected at 19 hours was below the limit of detection of the assay (0.5 ug/mL). For both sets of histograms (1 hour and 6 hours), the left bar is ceftriaxone alone and the right bar is ceftriaxone and P3A.
Another pig study was performed to determine if oral administration of P3A (i.e. SYN-004) had any effect on the systemic levels of antibiotics. For this study, ten Yorkshire piglets, approximately 2 months old and weighing approximately 20 kg were treated with intravenous ceftriaxone (CRO) at 50 mg/kg once a day for seven days. Five animals also received P3A capsules (1 capsule containing 75 mg of P3A, four times a day) beginning the day before CRO treatment and extending to one day after CRO treatment, for a total of nine days. Specifically, the P3A delayed-release capsules as described in Examples 1 and 2 were administered to the animals. On day 2, animals were anesthetized and approximately 9 mls of blood drawn from the vena cava at three timepoints, 1 hour, 6 hours, and 19 hours after CRO administration. Blood was immediately dispensed into a serum separator vacutainer tube. After coagulation, samples were centrifuged and the serum was transferred to a cryovial and stored at −80° C. until analysis. CRO in the serum samples was quantified using a validated high-performance liquid chromatography assay (Owens et al., 2001, Int. J. Antimicrobial Agents, 17:483). A standard curve for CRO was prepared in negative control (untreated) pig serum and contained 6 points ranging from 0.5 to 50 ug/mL. The assay was linear over a range of 0.5 to 50 ug/mL. […]

[3] = test system: ampicillin-resistant aerobes including those of the phylum Proteobacteria; assay: Plating of Day 21 feces on LB+amp plates; assay type: in vivo, gnotobiotic pigs populated with human adult fecal microflora; conditions: aerobic conditions, 37° C.
Procedure: Equal quantities of diluted feces collected from animals at necropsy were plated on LB+amp plates and grown under aerobic conditions at 37° C., The colonies were counted while taking into account the dilution factor.
The gastrointestinal (GI) tract of 5 day old gnotobiotic pigs was populated with human adult fecal microflora. Two days later, animals received antibiotics (clindamycin or CRO, IP, 50 mg/kg) for 4 days. P3A was delivered orally 4 times a day (75 mg/dose) for 7 days beginning the day before CRO administration. Specifically, the P3A delayed-release capsules as described in Examples 1 and 2 were administered to the animals. C. difficile (2.6×10^6 cfu) was delivered orally to all animals on Day 13. Feces were collected on Days 11, 12, 14, 18, 20 directly from the rectum using sterile cotton swabs and at necropsy on Day 21 directly from the intestinal tract. […] The levels of a specific bacterial population expected to be sensitive to CRO, but not to clindamycin, ampicillin-resistant aerobes including those of the phylum Proteobacteria, were assessed by plating equal amounts of Day 21 feces on LB+amp plates. Fecal C. difficile Toxin A and interleukin-8 (ILS) were assessed via ELISA as a measure of C. difficile infection (CDI). Intestinal tracts collected at necropsy on Day 21 were evaluated histologically for signs of CDI.

[4] = species-level centroid classification vs Group 1 (Control)

| SMILES | number of bacterial taxa, Genus (intestinal microbiome [1]) | number of bacterial taxa, Species (intestinal microbiome [1]) | number of bacterial taxa, Strain/sub-species (intestinal microbiome [1]) | phylum-level taxonomic classification of bacteria in fecal DNA (intestinal microbiome [2]) | concentration at 19 h (in vivo) [ng/mL] | CRO serum levels (in vivo; 1 h) [µg/mL] | CRO serum levels (in vivo; 6 h) [µg/mL] | bacteria levels on LB+amp plates [3] | abundance of Methanobrevibacter smithii (intestinal microbiome [1]; [4]) | abundance of Turicibacter spp (intestinal microbiome [1]; [4]) |
| --- | --- | --- | --- | --- | --- | --- | --- | --- | --- | --- |
| CCC[C@@H]1C[C@@H](C(=O)N[C@@H]([C@H]2O[C@H](SC)[C@H](O)[C@@H](O)[C@H]2O)[C@H](C)Cl)N(C)C1 [clindamycin] | 7 | 12 | 17 | – | – | – | – | – | – | – |
| CO/N=C(\C(=O)N[C@@H]1C(=O)N2C(C(=O)O)=C(CSc3nc(=O)c(=O)[nH]n3C)CS[C@H]12)c1csc(N)n1 [CRO, ceftriaxone] | 32 | 70 | 102 | dysbiosis | < 500 | 79.43 ± 12.08 | 5.83 ± 1.15 | at least two log lower levels | overabundance | underrepresentation |
